Values of other authors as cited in patent publication US20040208853A1, “Method and device for sanitation using bacteriophages” (priority 2000, published 2004).

System: bacterial counts on fresh-cut fruits
Settings: most effective chemical sanitizer

Compound: OO [hydrogen peroxide]
- maximum reduction rate in bacterial counts on fresh-cut fruits: 1.3 logs
